Experimental data from patent publication US8586619B2, “Agents of calcium ion channel modulators” (VM Therapeutics LLC, priority 2007, dated 2013).

Test system: Formalin induced pain in rat animal models of hyperalgesia
Test: Rat Formalin Paw Test (in vivo assay)
Details: flinches, shown in FIGS. 1 and 2
Protocol: Rat Formalin Paw Test (in Vivo Assay): Compounds were assessed for their ability to inhibit the behavioral response evoked by an injection of formalin (50 μl of 5% formalin). A metal band was affixed to the left hind paw of male Holtzman rats (225-250 g, Harlan Industries, Indianapolis Ind.) and each rat was conditioned to the band for 60 min within a plastic cylinder (15 cm diameter). Rats were dosed with either vehicle, positive control compound or a test compound either before (local) or after (systemic) formalin challenge. For local administration, compounds were prepared in either a 10:7.5 vehicle of saline (in mL) and (D)- or (L)-Tartaric acid (in mg), or a 1:1:6 vehicle of DMA (N,N-Dimethylacetamide), Tween 80 and saline, and injected […] into the dorsal surface of the right hind paw of the rat 60 min prior to formalin. The number of flinches was counted continuously for 60 min using an automated nociception analyzer (UCSD Anesthesiology Research, San Diego, Calif.). Statistical significance was determined by comparing the total flinches detected in the early (0-10 min, Phase I) and late (11-60 min) phase with an unpaired t-test. […]

SMILES: O=C(c1ccc(F)cc1)C1CCN(CCn2c(=O)[nH]c3ccccc3c2=O)CC1 [Compound 401, 3-{2-[4-(4-Fluoro-benzoyl)-piperidin-1-yl]-ethyl}-1H-quinazoline-2,4-dione]
- reduction of Formalin induced pain: reduction of Formalin induced pain

SMILES: CC1CCCC(NC(=O)C2N(C(C)CCc3ccccc3)C(=O)C3C(C(=O)Nc4cc(Cl)cc(Cl)c4)C4C=CC32O4)C1C (centres unmarked) [Compound 52, 3-(1-Methyl-3-phenyl-propyl)-4-oxo-10-oxa-3-aza-tricyclo[5.2.1.0^1,5]dec-8-ene-2,6-dicarboxylic acid 2-[(3,5-dichloro-phenyl)-amide]6-[(2,3-dimethyl-cyclohexyl)-amide]]
- reduction of Formalin induced pain: reduction of Formalin induced pain
